Test system: COLO-680N esophagus cells
Test: scratch wound healing of COLO-680N esophagus cell monolayer irritated with BSC medium
Format: cell-based, human
Conditions: COLO-680N cells treated with BSC; vs placebo, P<0.05 (FIG. 5)
Procedure: The adhesive, barrier, soothing and repairing effects of a composition of the invention was studied in different experimental models of esophageal epithelial cells (i.e. CP-A and COLO-680N) by simulating in vitro the damage induced by gastric content on the esophagus.
To this aim, we incubated the cell monolayer with a medium (named BSC) containing bile salts cocktail, pepsin and pH 2.5 (thus simulating the gastric juice).
The significant repairing effect was assessed as described in FIG. 1-5. Confluent monolayers of COLO-680N esophagus cells, cultured in a 24 well plate, were scraped with a pipette tip and, after washing twice with PBS, were incubated with BSC (irritant medium simulating the gastro-intestinal juice) or culture medium alone as a negative control. […] Wound closure (healing) was evaluated up to 24 h under a Leica DMIL inverted microscope (Leica Microsystem) and images were collected using a Canon Powershot A640 digital camera (Canon). The cellular movements, distance and cell number were used for quantitative evaluations. The images were analyzed by ImaJ software. Results were analyzed by statistical method for assessing the significance compared to both controls and single component of the invention; the differences were considered significant for p<0.05 (FIG. 5).

sodium hyaluronate [HA]
quantified wound healing effect (number of cells, movements, distance covered): do not exert wound healing effect
